Series [1] is described as follows: physchem. In kind it is physicochemical. The source says:
Atomoxetine HCl (API, active pharmaceutical ingredient) has good aqueous solubility. […] Human saliva has a pH normal range of 6.2-7.6 with 6.7 being the average pH. […] In the oral cavity, the pH is maintained near neutrality (6.7-7.3) by the saliva.
It is also evident that the solubilized form of atomoxetine is going to have a direct impact on taste buds thereby causing immediate bitterness upon drinking the oral solution.

For series [2] the following is noted: cited from earlier work.

Regarding `CNCC[C@@H](Oc1ccccc1C)c1ccccc1.Cl` [Atomoxetine HCl, (-)-N-Methyl-3-phenyl-3-(o-tolyloxy)-propylamine hydrochloride], the solubility is 12.2 mg/mL in series [1] (aqueous buffer, Absolute Solubility); 33.9 mg/mL in series [1] (pH 4.5, aqueous buffer, Absolute Solubility); 3.53 mg/mL in series [1] (pH 6.8, aqueous buffer, Absolute Solubility); 2.7 to 3.5 mg/mL in series [1] (pH 6.8, aqueous buffer, solubility); 2.75 mg/mL in series [1] (pH 7.4, aqueous buffer, Absolute Solubility); 13.1 mg/mL in series [1] (simulated gastric fluid, Absolute Solubility). Moreover, the solubility in series [1] (water, Absolute Solubility) was 24.1 mg/mL.

With “D-α-Tocopherol Polyethylene Glycol Succinate [Vitamin E TPGS]”, in series [2] (in water above CMC), the “size of self-assembled nanosized aggregates” value is “about 13 nm”. In addition, the “critical micellar concentration (CMC)” value in series [2] (in water) was 0.02 wt %.

As usually defined, the solubility is how much of the substance goes into solution per volume.
